In the supplement of paper PMC10307832:

Columns and labels:
Test in all cases: relative viability (nuclei count vs DMSO), 5 days (fraction); higher = more cells survive
[1] = compound: Nc1ncn([C@H]2C[C@H](O)[C@@H](CO)O2)c(=O)n1 [Decitabine]
In short: (§1)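 Lung cancer cell lines received five library-drug doses (not always all listed) spaced by √10, pinned on vehicle-anchored 1536-well plates after an overnight stay at 37 °C. Five days later, with no medium change, nuclei were Hoechst-stained, imaged at 4× and counted with MetaXpress. Viability is treated-well nuclei relative to vehicle-well nuclei, as a median across plates. Passing plates had control CV below 25% and at least one doubling.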

[2] = compound: O=C(C[C@H]1NCCC[C@@H]1O)Cn1cnc2cc(Br)c(Cl)cc2c1=O (racemic) [Halofuginone]
In short: as §1

[3] = compound: COc1cc2c(Oc3ccc4[nH]c(C)cc4c3F)ncnc2cc1OCCCN1CCCC1 [Cediranib]
In short: as §1

| Cell Line | relative viability ([1]; 0.04 µM) | relative viability ([1]; 0.1265 µM) | relative viability ([1]; 0.4 µM) | relative viability ([1]; 1.265 µM) | relative viability ([1]; 2 µM, anchor plate) | relative viability ([1]; 4 µM) | relative viability ([2]; 0.001 µM) | relative viability ([2]; 0.003162 µM) | relative viability ([2]; 0.01 µM) | relative viability ([2]; 0.03162 µM) | relative viability ([2]; 0.1 µM) | relative viability ([3]; 0.04 µM) | relative viability ([3]; 0.1265 µM) | relative viability ([3]; 0.4 µM) | relative viability ([3]; 1.265 µM) | relative viability ([3]; 4 µM) |
| --- | --- | --- | --- | --- | --- | --- | --- | --- | --- | --- | --- | --- | --- | --- | --- | --- |
| NCI-H2009 | 0.837 | 0.706 | 0.504 | 0.349 | 0.387 | 0.343 | 1.04 | 1.18 | 0.948 | 0.883 | 0.597 | 1.01 | 0.958 | 0.984 | 0.988 | 1.1 |
| NCI-H2023 | 0.678 | 0.516 | 0.249 | 0.206 | 0.227 | 0.172 | 0.98 | 1.05 | 0.931 | 0.516 | 0.082 | 1 | 1.02 | 0.902 | 0.878 | 1.19 |
| NCI-H2085 | 0.812 | 0.768 | 0.65 | 0.528 | 0.559 | 0.528 | 1.03 | 1.07 | 0.989 | 1.04 | 0.935 | 1 | 1.08 | 0.946 | 0.99 | 0.97 |
| NCI-H2087 | 0.574 | 0.567 | 0.561 | 0.296 | 0.294 | 0.367 | 1.09 | 1.21 | 0.975 | 0.886 | 0.836 | 1.09 | 1.18 | 0.776 | 1.14 | 1.27 |
| NCI-H2126 | 0.906 | 0.958 | 0.709 | 0.633 | 0.573 | 0.582 | 1.02 | 0.992 | 0.949 | 0.968 | 0.88 | 0.971 | 0.987 | 0.955 | 0.809 | 0.957 |
| NCI-H2170 | 0.839 | 0.746 | 0.685 | 0.475 | 0.471 | 0.473 | 0.988 | 1.05 | 0.917 | 0.982 | 0.991 | 1 | 0.764 | 0.983 | 0.828 | 1.03 |
| NCI-H2228 | 0.665 | 0.539 | 0.426 | 0.283 |  | 0.275 | 0.966 | 0.995 | 0.981 | 0.642 | 0.194 | 1.18 | 1.08 | 0.763 | 1.06 | 1.13 |
| NCI-H2342 | 0.977 | 1.05 | 0.97 | 0.671 | 0.745 | 0.645 | 1.07 | 0.956 | 0.961 | 0.963 | 0.95 | 1 | 1.1 | 0.899 | 0.746 | 1.07 |
| NCI-H2347 | 0.885 | 0.887 | 0.697 | 0.6 | 0.587 | 0.66 | 1.08 | 1.01 | 1.02 | 1.02 | 0.886 | 1.02 | 0.84 | 0.983 | 1.02 | 1.11 |
| NCI-H2405 | 0.898 | 0.903 | 0.758 | 0.596 | 0.745 | 0.49 | 1.16 | 1.03 | 1.01 | 0.96 | 0.876 | 0.999 | 0.914 | 0.994 | 1 | 1.02 |
| NCI-H3122 | 0.964 | 0.964 | 0.624 | 0.473 | 0.471 | 0.647 | 1 | 0.984 | 0.968 | 0.941 | 0.95 | 1.09 | 0.765 | 0.977 | 1 | 1.01 |
| PC-3 [JPC-3] |  | 0.85 | 0.537 | 0.611 | 0.847 | 0.627 | 1.06 | 1.04 | 1.01 | 1.09 | 0.982 | 0.921 | 0.959 | 0.933 | 1.09 | 0.973 |
| PC-14 | 0.393 | 0.449 | 0.156 | 0.149 | 0.218 | 0.163 | 1.02 | 1 | 0.93 | 0.639 | 0.348 | 1.06 | 1.08 | 0.959 | 0.931 | 0.998 |
| RERF-LC-KJ | 0.951 | 0.967 | 0.561 | 0.688 | 0.728 | 0.642 | 1.08 | 1.07 | 0.951 | 0.966 | 0.912 | 1.01 | 0.862 | 0.946 | 0.963 | 1.05 |
| SK-LU-1 | 0.788 | 0.703 | 0.46 | 0.482 | 0.631 | 0.411 | 1.09 | 1.05 | 1.04 | 1.05 | 0.588 | 1.12 | 1.02 | 0.957 | 0.924 | 1.11 |
| SK-MES-1 | 0.827 | 0.707 | 0.461 | 0.339 | 0.378 | 0.305 | 1.04 | 1.05 | 0.978 | 0.827 | 0.271 | 1.06 | 1.12 | 0.961 | 0.967 | 1.09 |
| SW 900 | 0.465 | 0.477 | 0.298 | 0.25 | 0.433 | 0.265 | 0.911 | 0.888 | 0.664 | 1.02 | 0.569 | 0.811 | 0.774 | 0.737 | 0.835 | 0.952 |
| SW 1573 | 0.815 | 0.944 | 0.732 | 0.486 | 0.504 | 0.379 | 1.08 | 1.06 | 0.908 | 0.692 | 0.278 | 1.01 | 0.974 | 0.969 | 0.828 | 0.927 |
